Laboratory results: patent US11046716B2, “Beta-lactamase inhibitors” (priority 2015, dated 2021)

Experiments:
[1] = molecular target: T1, SHV-5 (Klebsiella pneumoniae, UniProt P0A3M1); test: β-lactamase enzyme inhibition assay, SHV-5 (cefotaxime substrate); assay type: biochemical
T1 construct: made in house; host or cells: E. coli BL21(DE3)
Outline: (§1)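 Native untagged enzymes expressed in E. coli BL21(DE3), purified by cation exchange and gel filtration. Inhibitor preincubated with enzyme 15 min at 37 °C; hydrolysis followed by absorbance: imipenem at 300 nm for KPC-2, cefotaxime at 260 nm for SHV-5. IC50 as concentration halving initial hydrolysis rate versus inhibitor-free wells.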

[2] = molecular target: T2, KPC-2 (Klebsiella pneumoniae, UniProt Q9F663); test: β-lactamase enzyme inhibition assay, KPC-2 (imipenem substrate); assay type: biochemical; settings: Class A; imipenem substrate, 300 nm; read-out: KPC-2
T2 construct: made in house; host or cells: E. coli BL21(DE3)
Outline: as §1

[3] = molecular target: T3, VIM-2 (Escherichia coli, UniProt Q5U7L7); test: β-lactamase enzyme inhibition assay, VIM-2 (nitrocefin substrate); assay type: biochemical; settings: Class B; nitrocefin substrate, 486 nm; read-out: VIM-2
T3 construct: made in house; host or cells: E. coli BL21(DE3)
Outline: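 Purified VIM-2 preincubated with inhibitor for 15 min at 37° C, then nitrocefin (100 μM final) added and absorbance at 486 nm followed for 10 min. Maximum hydrolysis rates compared with inhibitor-free controls; IC50 fitted from percent inhibition across inhibitor concentrations.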

[4] = molecular target: T4, AmpC (Enterobacter cloacae, UniProt P05364); test: β-lactamase enzyme inhibition assay, p99 AmpC (nitrocefin substrate); assay type: biochemical
T4 construct: made in house; host or cells: E. coli BL21(DE3)
Outline: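 Native untagged enzymes expressed in E. coli BL21(DE3), purified by cation exchange and gel filtration. Inhibitor preincubated with enzyme 15 min at 37 °C; hydrolysis followed by absorbance. IC50 as concentration halving initial hydrolysis rate versus inhibitor-free wells.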

[5] = molecular target: OXA-48 (UniProt Q6XEC0); test: β-lactamase enzyme inhibition assay, Class D oxacillinase; assay type: biochemical; settings: read-out: OXA-48
[6] = tested on: E. coli expressing the Class A Extended Spectrum Beta-Lactamase (ESBL) CTX-M-15; test: Broth microdilution MIC assay with ceftazidime, E. coli CTX-M-15; assay type: cell-based; settings: Fixed CAZ (ceftazidime) 4 μg/mL; E. coli ESBL4 CTX-M-15
Outline: (§2)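 Test compounds in 2-fold dilutions (16 to 0.125 μg/mL final) in CAMHB were combined with a β-lactam at a static 4 μg/ml final. Plates were inoculated per CLSI broth microdilution with the β-lactamase-producing strain (pre-grown 3-5 h) and incubated 16-20 h at 37° C. MIC of test compound was read visually.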

[7] = tested on: E. cloacae expressing the Class C P99; test: Broth microdilution MIC assay with ceftazidime, E. cloacae P99; assay type: cell-based; settings: Fixed CAZ (ceftazidime) 4 μg/mL; E. cl. 144200 p99 AmpC
Outline: as §2

[8] = tested on: K. pneumoniae expressing the Class A carbapenemase KPC-2; test: Broth microdilution MIC assay with meropenem, K. pneumoniae KPC-2; assay type: cell-based; settings: Fixed Mero (meropenem) 4 μg/mL; K. p. 156319 KPC-3
Outline: as §2

[9] = tested on: P. aeruginosa expressing the Class B carbapenemase VIM-2; test: Broth microdilution MIC assay with meropenem, P. aeruginosa VIM-2; assay type: cell-based; settings: Fixed Mero (meropenem) 4 μg/mL; P. aerug. 2775 VIM-2
Outline: as §2

[10] = tested on: K. pneumoniae expressing the class A carbapenemase KPC-2 and the class B carbapenemase VIM-4; test: Broth microdilution MIC assay with meropenem, K. pneumoniae KPC-2 and VIM-4; assay type: cell-based; settings: Fixed Mero (meropenem) 4 μg/mL; K. p. A-1797 KPC-2 VIM-4
Outline: as §2

[11] = tested on: K. pneumoniae producing the Class D carbapenemase OXA-48; test: Broth microdilution MIC assay with meropenem, K. pneumoniae OXA-48; assay type: cell-based; settings: Fixed Mero (meropenem) 4 μg/mL; K. p. 11978 OXA-48
Outline: as §2

T2 sequence (Q9F663 25-293, looked up): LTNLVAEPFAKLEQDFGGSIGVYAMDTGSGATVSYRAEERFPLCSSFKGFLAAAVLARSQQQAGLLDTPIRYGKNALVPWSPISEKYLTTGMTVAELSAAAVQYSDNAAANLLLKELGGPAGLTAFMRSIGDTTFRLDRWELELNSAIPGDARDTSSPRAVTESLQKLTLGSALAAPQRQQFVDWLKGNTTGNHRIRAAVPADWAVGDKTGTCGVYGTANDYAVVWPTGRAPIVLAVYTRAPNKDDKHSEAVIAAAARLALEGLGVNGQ
T1 sequence (P0A3M1 22-286): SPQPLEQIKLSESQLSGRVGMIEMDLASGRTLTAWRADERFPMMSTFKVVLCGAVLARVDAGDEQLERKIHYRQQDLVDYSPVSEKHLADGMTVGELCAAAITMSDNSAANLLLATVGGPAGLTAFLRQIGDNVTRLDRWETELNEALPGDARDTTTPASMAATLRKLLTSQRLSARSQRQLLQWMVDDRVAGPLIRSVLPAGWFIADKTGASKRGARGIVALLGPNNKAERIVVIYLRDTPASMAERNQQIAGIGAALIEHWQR
T4 sequence (P05364 21-381): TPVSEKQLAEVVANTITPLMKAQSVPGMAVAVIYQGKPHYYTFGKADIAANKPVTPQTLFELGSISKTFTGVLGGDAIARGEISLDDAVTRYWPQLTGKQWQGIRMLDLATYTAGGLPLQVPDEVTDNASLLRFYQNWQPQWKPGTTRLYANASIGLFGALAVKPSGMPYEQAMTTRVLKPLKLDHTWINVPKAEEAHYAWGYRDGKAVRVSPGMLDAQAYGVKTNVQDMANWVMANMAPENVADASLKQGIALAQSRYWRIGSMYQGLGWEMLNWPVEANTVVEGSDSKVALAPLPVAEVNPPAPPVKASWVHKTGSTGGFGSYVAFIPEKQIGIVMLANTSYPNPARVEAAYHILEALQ

Structure (SMILES): CNCc1cn(CC(=O)N[C@H]2Cc3cccc(C(=O)O)c3OB2O)nn1 [Example 26, (R)-2-hydroxy-3-(2-(4-((methylamino)methyl)-1H-1,2,3-triazol-1-yl)acetamido)-3,4-dihydro-2H-benzo[e][1,2]oxaborinine-8-carboxylic acid]
- IC50 [1]: < 100 nM
- IC50 [2]: 100 to 1000 nM
- IC50 [3]: < 100 nM
- IC50 [4]: < 100 nM
- IC50 [5]: 100 to 1000 nM
- MIC (μg/mL) of Exemplary Compounds in presence of fixed β-lactams: E. coli ESBL4 CTX-M-15 [6]: C (C represents an MIC of <1 μg/mL)
- MIC (μg/mL) of Exemplary Compounds in presence of fixed β-lactams: E. cl. 144200 p99 AmpC [7]: C (C represents an MIC of <1 μg/mL)
- MIC (μg/mL) of Exemplary Compounds in presence of fixed β-lactams: K. p. 156319 KPC-3 [8]: B (B represents an MIC between 1 and 16 μg/mL inclusive)
- MIC (μg/mL) of Exemplary Compounds in presence of fixed β-lactams: P. aerug. 2775 VIM-2 [9]: B (B represents an MIC between 1 and 16 μg/mL inclusive)
- MIC (μg/mL) of Exemplary Compounds in presence of fixed β-lactams: K. p. A-1797 KPC-2 VIM-4 [10]: C (C represents an MIC of <1 μg/mL)
- MIC (μg/mL) of Exemplary Compounds in presence of fixed β-lactams: K. p. 11978 OXA-48 [11]: B (B represents an MIC between 1 and 16 μg/mL inclusive)

Structure (SMILES): NCCONC(=O)c1cn(CC(=O)N[C@H]2Cc3cccc(C(=O)O)c3OB2O)nn1 [Example 61, (R)-3-(2-(4-((2-aminoethoxy)carbamoyl)-1H-1,2,3-triazol-1-yl)acetamido)-2-hydroxy-3,4-dihydro-2H-benzo[e][1,2]oxaborinine-8-carboxylic acid]
- IC50 [1]: < 100 nM
- IC50 [2]: < 100 nM
- IC50 [3]: 100 to 1000 nM
- IC50 [4]: < 100 nM
- IC50 [5]: 100 to 1000 nM
- MIC (μg/mL) of Exemplary Compounds in presence of fixed β-lactams: E. coli ESBL4 CTX-M-15 [6]: C (C represents an MIC of <1 μg/mL)
- MIC (μg/mL) of Exemplary Compounds in presence of fixed β-lactams: E. cl. 144200 p99 AmpC [7]: C (C represents an MIC of <1 μg/mL)
- MIC (μg/mL) of Exemplary Compounds in presence of fixed β-lactams: K. p. 156319 KPC-3 [8]: B (B represents an MIC between 1 and 16 μg/mL inclusive)
- MIC (μg/mL) of Exemplary Compounds in presence of fixed β-lactams: P. aerug. 2775 VIM-2 [9]: C (C represents an MIC of <1 μg/mL)
- MIC (μg/mL) of Exemplary Compounds in presence of fixed β-lactams: K. p. A-1797 KPC-2 VIM-4 [10]: B (B represents an MIC between 1 and 16 μg/mL inclusive)
- MIC (μg/mL) of Exemplary Compounds in presence of fixed β-lactams: K. p. 11978 OXA-48 [11]: B (B represents an MIC between 1 and 16 μg/mL inclusive)

Structure (SMILES): NNC(=O)Cn1nnc(CC(=O)N[C@H]2Cc3cccc(C(=O)O)c3OB2O)n1 [Example 96, (R)-3-(2-(2-(2-hydrazinyl-2-oxoethyl)-2H-tetrazol-5-yl)acetamido)-2-hydroxy-3,4-dihydro-2H-benzo[e][1,2]oxaborinine-8-carboxylic acid]
- IC50 [1]: < 100 nM
- IC50 [2]: < 100 nM
- IC50 [3]: 100 to 1000 nM
- IC50 [4]: < 100 nM
- IC50 [5]: < 100 nM
- MIC (μg/mL) of Exemplary Compounds in presence of fixed β-lactams: E. coli ESBL4 CTX-M-15 [6]: C (C represents an MIC of <1 μg/mL)
- MIC (μg/mL) of Exemplary Compounds in presence of fixed β-lactams: E. cl. 144200 p99 AmpC [7]: C (C represents an MIC of <1 μg/mL)
- MIC (μg/mL) of Exemplary Compounds in presence of fixed β-lactams: K. p. 156319 KPC-3 [8]: B (B represents an MIC between 1 and 16 μg/mL inclusive)
- MIC (μg/mL) of Exemplary Compounds in presence of fixed β-lactams: P. aerug. 2775 VIM-2 [9]: C (C represents an MIC of <1 μg/mL)
- MIC (μg/mL) of Exemplary Compounds in presence of fixed β-lactams: K. p. A-1797 KPC-2 VIM-4 [10]: B (B represents an MIC between 1 and 16 μg/mL inclusive)
- MIC (μg/mL) of Exemplary Compounds in presence of fixed β-lactams: K. p. 11978 OXA-48 [11]: B (B represents an MIC between 1 and 16 μg/mL inclusive)
